“And” between values parts separate entries of the source, which are not always exact repeats. Equal entries are not always repeated.
Experiments:
HIV [1] = assay: Reduction of HIV cytopathic effect, CEM-6 (CEMV test, six days); format: cell-based; conditions: CEM cells; for EC50: free HIV, read-out: Activity of Anti-HIV Compounds (EC50), CEM-6; for Activity class of Anti-HIV Compounds, CEM-6: inhibition of viral cytopathic effect, 8640 min
Description: (§1) The compounds of Examples were tested for anti-AIDS activity by subjecting them to standard National Cancer Institute ("NCI") in vitro screening procedures. In carrying out each test, two blanks were run. In the first blank, HIV and a culture of a standard human cell line were incubated together to measure the infectivity of the virus. The viability of the cells was measured after holding for six or seven days. In an "effective" test, most cells were infected before the holding period was complete.
(§2) Finally, the protective effects of the test compounds were measured. Each cell culture and test compound were incubated with the virus and the viability of the cells was measured as a function of compound concentration after holding for six or seven days. If the compound is active in protecting the cells against the virus, there is typically low cell viability until an effective concentration of the test compound is reached. At this point, cell viability increases steadily toward 100% unless the toxic effect of the compound (as measured in the second blank) takes effect. The concentration of the test compound that results in 50% "control," i.e., a 50% reduction of the viral cytopathic effect, is defined as the EC 50. The therapeutic index TI50 is calculated as IC50/EC50.
(§3) Values of test compound concentrations required for between 20 and 50% reduction of the viral cytopathic effect can also be determined. Such compounds are classified as moderately active.
(§4) The compounds were tested to determine their reduction of HIV cytopathic effect on the human cell lines CEM and MT2. Tests were done by innoculating these cell lines either with free HIV (V) or with a virus Previously cultured with host cells (C). Thus, in Table III the designation CEMV means CEM line cells innoculated with free virus and MT2C means MT2 cells innoculated with cultured viral infected MT2 cells. In some cases the compound was also tested on a cell line together with a sub-effective amount of the known HIV viricide AZT. This is done to test possible synergistic effects. Such a test on the CEM line is denoted CEMZ.
(§5) 1) T4 lymphocytes (CEM cell line) are exposed to HIV at a virus to cell ratio of approximately 0.05 and plated along with non-infected control cells in 96-well microtiter plates.
(§6) 2) Each candidate agent is dissolved in dimethyl sulfoxide (unless otherwise indicated), then diluted 1:200 in cell culture medium. Further dilutions (five-fold) are prepared before adding to an equal volume of medium containing either infected or noninfected cells.
(§7) 3) Cultures are incubated at 37° C. in a 5% carbon dioxide atmosphere for seven days (if six days the CEMV test is identified as CEM-6).
(§8) 4) The tetrazolium salt, XTT, is added to all wells, and cultures are incubated to allow formazan color development by viable cells.
(§9) 5) Individual wells are analyzed spectrophotometrically to quantity formazan production, and in addition are viewed microscopically for detection of viable cells and confirmation of protective activity.
(§10) 6) Drug-treated virus-infected cells are compared with drug-treated non-infected cells and with other appropriate controls (untreated infected and untreated non-infected cells, drug-containing wells without cells, etc.) on the same plate.

HIV [2] = assay: microbe, parasite or virus in culture; format: cell-based; conditions: CEM cells; for EC50: free HIV, read-out: Activity of Anti-HIV Compounds (EC50), CEMV
Description: as §1
In the second blank, the cell line culture and the compound being tested (but not virus) were incubated together to measure the toxicity of the drug to the cellline. The viability of the cells was measured as a function of concentration of the compound, after holding for seven days. Typically, the cells survive at low compound concentrations, but at some higher concentration, toxicity of the compound is manifested and the cells die. The concentration of the test compound that results in 50% inhibition of cell growth is defined as the IC50.
as §2, §3, §4, §5, §6, §7, §8, §9, §10
7) A determination of activity is made. […]

[3] = Human immunodeficiency virus 1, CCRF-CEM, 144 h
[4] = Human immunodeficiency virus 1, CCRF-CEM

Molecule | EC50 (HIV [1]) | Activity class of Anti-HIV Compounds, CEM-6 (HIV [1]) | other results
CC1=C(C(=O)Nc2ccc(F)c(C(=O)OC(C)C)c2)SCCO1 [Compound 72] | 590 nM and 340 nM | – | EC50 (HIV [1]; [3]): 540 nM
Cc1occc1C(=O)Nc1ccc(Cl)c(C(=O)OC(C)C)c1 [Compound 79, 1-Methylethyl 2-chloro-5-[[(2-methyl-3-furanyl)carbonyl]amino]benzoate] | 3300 nM | – | –
Cc1cc(C(=O)Nc2ccc(Cl)c(C(=O)OC(C)C)c2)c(C)o1 [Compound 81, 1-Methylethyl 2-chloro-5-[[(2,5-dimethyl-3-furanyl)carbonyl]amino]benzoate] | – | – | EC50 (HIV [1]; [3]): 420 nM
CC(C)OC(=O)c1cc(NC(=S)N(C)C)ccc1Cl [Compound 48] | – | MA (moderate activity (MA), that is, inhibition between approximately 20 and 50%) | –
Cc1cc(C)c(C(=O)Nc2ccc(Cl)c(C(=O)OC(C)C)c2)s1 [Compound 108] | – | MA (moderate activity (MA), that is, inhibition between approximately 20 and 50%) | –
CC(C)NC(=S)Nc1ccc(Cl)c(C(=O)OC(C)C)c1 [Compound 49] | – | MA (moderate activity (MA), that is, inhibition between approximately 20 and 50%) | –
CC(C)=CC(=O)Nc1ccc(Cl)c(C(=O)OC(C)C)c1 [Compound 91, 1-Methylethyl 2-chloro-5-[(3-methyl-1-oxo-2-butenyl)amino]-benzoate] | – | MA (moderate activity (MA), that is, inhibition between approximately 20 and 50%) | –
CCOC(=O)c1cc(NC(=O)c2ccccc2OC)ccc1Cl [Compound 86, Ethyl 2-chloro-5-[(2-methoxybenzoyl)amino]benzoate] | 1360 nM | – | EC50 (HIV [1]; [3]): 1740 nM
CC(C)OC(=O)c1cc(NC(=O)c2ccccc2Cl)ccc1Cl [Compound 90, 1-Methylethyl 2-chloro-5-[(2-chlorobenzoyl)amino]benzoate] | – | MA (moderate activity (MA), that is, inhibition between approximately 20 and 50%) | –
CCC1=C(C(=O)Nc2ccc(Cl)c(C(=O)OCC(C)C)c2)SCCO1 [Compound 74, 2-Methylpropyl 2-chloro-5-[[(2-ethyl-5,6-dihydro-1,4-oxathiin-3-yl)carbonyl]amino]benzoate] | – | – | EC50 (HIV [1]; [3]): 38900 nM
COCCOC(=O)c1cc(NC(=O)C2=C(C)OCCS2)ccc1Cl [Compound 69] | – | – | EC50 (HIV [1]; [3]): 340 nM
CC(C)OC(=O)c1cc(NC(=O)c2ccsc2)ccc1Cl [Compound 109] | – | MA (moderate activity (MA), that is, inhibition between approximately 20 and 50%) | –
CCOC(=O)c1cc(NC(=O)c2ccccc2)ccc1Cl [Compound 87, Ethyl 5-(benzoylamino)-2-chlorobenzoate] | – | MA (moderate activity (MA), that is, inhibition between approximately 20 and 50%) | –
CCCC1=C(C(=O)Nc2ccc(Cl)c(C(=O)OC)c2)SCCO1 [Compound 71, Methyl 2-chloro-5-[[(5,6-dihydro-2-propyl-1,4-oxathiin-3-yl)-carbonyl]amino]benzoate] | 1830 nM and 1620 nM | – | EC50 (HIV [1]; [3]): 990 nM
CC(C)OC(=O)c1cc(NC(=S)OC2CCCCC2)ccc1Cl [Compound 44] | 1340 nM | – | EC50 (HIV [1]; [3]): 760 nM
COCCOC(=O)c1cc(NC(=O)c2ccccc2)ccc1Cl [Compound 84, 2-Methoxyethyl 5-[benzoylamino)-2-chlorobenzoate] | – | MA (moderate activity (MA), that is, inhibition between approximately 20 and 50%) | –
Cc1nc(C(=O)Nc2ccc(Cl)c(C(=O)OC(C)C)c2)c(-c2ccccc2)o1 [Compound 103] | – | MA (moderate activity (MA), that is, inhibition between approximately 20 and 50%) | –
CC1=C(C(=O)Nc2ccc(C)c(C(=O)OC(C)C)c2)SCCO1 [Compound 73] | 580 nM | – | EC50 (HIV [1]; [3]): 410 nM

Molecule | EC50 (HIV [1]) | Activity class of Anti-HIV Compounds, CEM-6 (HIV [1]) | other results
Cc1ccsc1C(=O)Nc1ccc(Cl)c(C(=O)OC(C)C)c1 [Compound 106] | 2200 nM | – | –
CCCOC(=O)c1ccc(C)c(NC(=O)C2=C(C)OCCS2)c1 [Compound 75, Propyl 3-[[(5,6-dihydro-2-methyl-1,4-oxathiin-3-yl)carbonyl]amino]-4-methylbenzoate] | 908 nM | – | EC50 (HIV [1]; [3]): 1060 nM
CC1=C(C(=O)Nc2cccc(C#N)c2)SCCO1 [Compound 9, N-(3-Cyanophenyl)-5,6-dihydro-2-methyl-1,4-oxathiin-3-carboxamide] | – | – | Activity class of Anti-HIV Compounds, CEMV (HIV [2]; inhibition of viral cytopathic effect, free virus): MA (moderate activity (MA), that is, inhibition between approximately 20 and 50%)
CC1=C(C(=O)Nc2ccc(Cl)c(C(=O)OC(C)C)c2)SCCS1 [Compound 27, 1-Methylethyl 2-chloro-5[[(5,6-dihydro-3-methyl-1,4-dithiin-2-yl)carbonyl]amino]benzoate] | – | – | EC50 (HIV [2]): 810 nM; EC50 (HIV [2]; [4]): 1380 nM
CC(C)OC(=O)c1cc(NC(=S)OCC2CC2)ccc1Cl [Compound 46] | 53 nM | – | –
CCCC1=C(C(=O)Nc2ccc(Cl)c(C(=O)OCC)c2)SCCO1 [Compound 70, Ethyl 2-chloro-5-[[(5,6-dihydro-2-propyl-1,4-oxathiin-3-yl)carbonyl]amino]benzoate] | 210 nM and 230 nM | – | EC50 (HIV [1]; [3]): 170 nM
Cc1coc(C)c1C(=O)Nc1ccc(Cl)c(C(=O)OC(C)C)c1 [Compound 80, 1-Methylethyl 2-chloro-5-[[(2,4-dimethyl-3-furanyl)carbonyl]amino]benzoate] | 2300 nM | – | –
CC(C)OC(=O)c1cc(NC(=O)C2=CCCCC2)ccc1Cl [Compound 107] | – | MA (moderate activity (MA), that is, inhibition between approximately 20 and 50%) | –
CC(C)OC(=O)c1cc(NC(=O)c2cc3ccccc3[nH]2)ccc1Cl [Compound 104] | – | MA (moderate activity (MA), that is, inhibition between approximately 20 and 50%) | –
Cc1nc(-c2ccccc2)c(C(=O)Nc2ccc(Cl)c(C(=O)OC(C)C)c2)o1 [Compound 105] | – | MA (moderate activity (MA), that is, inhibition between approximately 20 and 50%) | –
CCCCOC(=O)c1cccc(NC(=O)C2=C(C)OCCS2)c1 [Compound 76] | – | MA (moderate activity (MA), that is, inhibition between approximately 20 and 50%) | –
CCOC(=O)c1cc(NC(=O)C2=C(C)OCCS2)ccc1Cl [Compound 4, Ethyl 2-chloro-5-[[(5,6-dihydro-2-methyl-1,4-oxathiin-3-yl)carbonyl]amino]benzoate] | – | – | EC50 (HIV [2]): 300 nM and 200 nM; EC50 (HIV [2]; [4]): 400 nM
Ethyl 5-[(2-aminobenzoyl)amino]-2-chlorobenzoate [Compound 88] | 5700 nM and 3100 nM | – | –
CCCOC(=O)c1cc(NC(=O)C2=C(C)OCCS2)ccc1Cl [Compound 5, Propyl 2-chloro-5-[[(5,6-dihydro-2-methyl-1,4-oxathiin-3-yl)carbonyl]amino]benzoate] | – | – | EC50 (HIV [2]): 60 nM; EC50 (HIV [2]; [4]): 70 nM
CC(C)OC(=O)c1cc(NC(=O)C(C)(C)C)c(F)cc1Cl [Compound 30, 1-Methylethyl 2-chloro-5-[(2,2-dimethyl-1-oxopropyl)amino]-4-fluorobenzoate] | – | – | EC50 (HIV [2]; [4]): 42700 nM
C#CCOC(=O)Nc1ccc(Cl)c(C(=O)OC(C)C)c1 [Compound 92, 1-Methylethyl 2-chloro-5-[((2-propynyloxy)carbonyl]amino]benzoate] | – | MA (moderate activity (MA), that is, inhibition between approximately 20 and 50%) | –
CC1=C(C(=O)Nc2cc(C(=O)OC(C)C)ccc2F)SCCO1 [Compound 13, 1-Methylethyl 3-[[(5,6-dihydro-2-methyl-1,4-oxathiin-3-yl)carbonyl]amino]-4-fluorobenzoate] | – | – | EC50 (HIV [2]): 13200 nM; EC50 (HIV [2]; [4]): 15200 nM
